Results from patent publication US5132216A, “Microbial transformation process for antihypertensive products” (Merck & Co., Inc., priority 1991, dated 1992).

Biological target: T1, Angiotensin II (A II) receptor (Oryctolagus cuniculus, UniProt P34976)
T1 sequence (P34976 1-359): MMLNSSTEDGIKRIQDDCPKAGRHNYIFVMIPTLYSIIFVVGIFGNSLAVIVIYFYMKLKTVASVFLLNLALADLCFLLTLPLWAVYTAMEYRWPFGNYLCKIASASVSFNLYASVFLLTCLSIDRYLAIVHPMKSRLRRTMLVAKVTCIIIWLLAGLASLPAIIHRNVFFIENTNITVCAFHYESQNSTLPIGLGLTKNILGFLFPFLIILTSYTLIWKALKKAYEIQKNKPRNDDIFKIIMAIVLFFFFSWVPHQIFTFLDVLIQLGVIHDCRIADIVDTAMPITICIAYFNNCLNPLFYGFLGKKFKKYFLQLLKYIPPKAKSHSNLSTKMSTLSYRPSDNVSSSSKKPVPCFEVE
Test: Receptor binding assay using rabbit aortae membrane preparation (125I-Sar1Ile8-angiotensin II displacement, "IC50" assay)
Description: This assay is also referred to herein as the "IC50 " assay.
Receptor binding assay using rabbit aortae membrane preparation
Three frozen rabbit aortae (obtained from Pel-Freeze Biologicals) were suspended in 5 mM Tris-0.25M Sucrose, pH 7.4 buffer (50 ml) homogenized, and then centifuged. The mixture was filtered through a cheesecloth and the supernatant was centrifuged for 30 minutes at 20,000 rpm at 4° C. The pellet thus obtained was resuspended in 30 ml of 50 mM Tris-5 mM MgCl2 buffer containing 0.2% Bovine Serum Albumin and 0.2 mg/ml Bacitration and the suspension was used for 100 assay tubes. Samples tested for screening were done in duplicate. To the membrane preparation (0.25 ml) there was added ^125 I-Sar^1 Ile^8 -angiotensin II [obtained from New England Nuclear] (10 ul; 20,000 cpm) with or without the test sample and the mixture was incubated at 37° C. for 90 minutes. The mixture was then diluted with ice-cold 50 mM Tris-0.9% NaCl, pH 7.4 (4 ml) and filtered through a glass fiber filter (GF/B Whatman 2.4" diameter). The filter was soaked in scintillation cocktail (10 ml) and counted for radioactivity using Packard 2660 Tricarb liquid scintillation counter. […]

**Q.** How did the “A II antagonist activity by the IC50 assay” value turn out when `Cc1cc(CO)nc2c1nc(C(C)O)n2Cc1ccc(-c2ccccc2-c2nnn[nH]2)cc1` (stereo not shown) [compound (IV)] was run?
**A.** exhibit A II antagonist activity
